5 molecules from patent US7375086B2, “Modulators of Nod2 signaling” (The Regents of the University of Michigan, priority 2000, dated 2008) can be followed below.

The subject of one assay is Nod2-Fpk3. The experiment in a line: Enforced oligomerization of Fpk3-Nod2 chimeric proteins, NF-κB reporter in HEK293T cells. The class given is cell-based, human. The method, then: HEK293T cells were transfected with of control plasmid (−) or plasmids producing the indicated Myc-tagged Fpk3Nod2 proteins. Extracts from equal number of cells was immunoprecipitated and immunoblotted with rabbit anti-Myc antibody. […] 2×10^5 HEK293T cells were transfected with 1 ng of the indicated plasmids in the presence of pBVIx-luc and pEF-BOS-β-gal. 8 hr post-transfection, cells were treated with 500 nM AP1510 (black bars) or left untreated (white bars). 24 hr post-transfection, the κB-dependent transcription was determined as described below. Values represent mean ±SD of triplicate cultures.
In the case of Nod1, its oligomerization appears to promote proximity of RICK and NF-κB activation. To test a similar role for Nod2, plasmids were constructed to express chimeric proteins in which wt or Nod2 mutants were fused to three tandem repeated dimerization domains of Fpk (Fpk3), which can be oligomerized by the cell-permeable ligand AP1510 (MacCorkle et al., Proc. Nat. Acad. Sci. U. S. A. 95: 3655-3660 [1998]). […] Because wt Nod2 alone induces NF-KB activation, we expressed suboptimal amounts of the chimeric Fpk3-Nod2 constructs into HEK293T cells. […] Similarly, NF-κB activation induced by a Nod2 P-loop mutant lacking the LRRs (K305RALRR), which have reduced ability to induce NF-κB activation, was enhanced by enforced oligomerization (FIG. 7C). […]

In a further assay the target is T1, Nod2 (Homo sapiens, UniProt Q9HC29, R703H).
T1 construct: ligated to generate an unique cDNA containing the entire open reading frame of Nod2; expressed in transfected cells; host or cells: HEK293T
T1 sequence (Q9HC29 whole entry R703H): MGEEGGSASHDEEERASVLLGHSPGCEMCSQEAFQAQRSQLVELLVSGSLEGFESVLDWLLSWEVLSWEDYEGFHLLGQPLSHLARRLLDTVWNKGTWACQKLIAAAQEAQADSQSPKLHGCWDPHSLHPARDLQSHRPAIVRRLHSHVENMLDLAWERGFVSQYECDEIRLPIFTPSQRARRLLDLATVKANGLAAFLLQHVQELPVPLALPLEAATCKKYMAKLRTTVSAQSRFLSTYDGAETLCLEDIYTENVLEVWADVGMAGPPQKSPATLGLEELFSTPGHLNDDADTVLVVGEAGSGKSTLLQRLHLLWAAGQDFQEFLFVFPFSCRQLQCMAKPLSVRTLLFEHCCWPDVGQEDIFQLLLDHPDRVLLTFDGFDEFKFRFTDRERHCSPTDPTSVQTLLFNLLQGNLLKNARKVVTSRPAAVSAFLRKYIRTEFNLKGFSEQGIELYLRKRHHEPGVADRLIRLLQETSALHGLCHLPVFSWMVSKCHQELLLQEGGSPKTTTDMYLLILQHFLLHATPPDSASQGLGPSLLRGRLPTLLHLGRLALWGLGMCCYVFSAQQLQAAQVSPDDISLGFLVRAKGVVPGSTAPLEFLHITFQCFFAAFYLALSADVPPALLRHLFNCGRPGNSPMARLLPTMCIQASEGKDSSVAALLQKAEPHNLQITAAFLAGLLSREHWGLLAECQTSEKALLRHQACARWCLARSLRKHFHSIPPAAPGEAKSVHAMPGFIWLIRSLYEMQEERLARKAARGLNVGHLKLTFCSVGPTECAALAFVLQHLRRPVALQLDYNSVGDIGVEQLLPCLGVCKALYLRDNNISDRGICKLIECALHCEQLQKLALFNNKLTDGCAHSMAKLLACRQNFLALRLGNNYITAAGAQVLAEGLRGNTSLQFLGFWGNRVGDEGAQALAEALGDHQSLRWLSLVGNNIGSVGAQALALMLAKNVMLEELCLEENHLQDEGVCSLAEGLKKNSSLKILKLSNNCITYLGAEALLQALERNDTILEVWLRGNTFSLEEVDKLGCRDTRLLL
The assay can be described thus: NF-κB reporter assay in HEK293T/HEK293 cells expressing Nod2. The class given is cell-based. As to conditions: 100 ng/ml (FIG. 18C).

For assay [1], the system named is NF-κB. The assay can be described thus: NF-κB luciferase reporter assay in HEK293T cells transfected with control plasmid. The class given is cell-based, human. The method, then:
Induction of NF-κB activation was determined in triplicate cultures of HEK293T cells transfected with 30 ng of Nod2 plasmid (open bars) or stimulated with 10 ng/ml of TNFα for 4 h (closed bars) and 70 ng of I-κBα S32A/S36A, IKKα K44A, IKKβ K44A, RICK (406-540) or RIP (558-671) expression plasmid in the presence of pBVIx-Luc and pEF-BOS-β-gal. Results are presented as a percent of values obtained with Nod2 and control plasmid. In the experiment shown, Nod2 and TNFα induced 58±8-fold and 14±1-fold activation of NF-κB, respectively. Values represent mean ±SD of triplicate cultures. […] Induction of NF-κB activation was determined from triplicate cultures of I×10^5 HEK293T cells co-transfected with the indicated plasmids and pBVIx-Luc in the presence of control plasmid pEF-BOS-β-gal. […]
8 hr post-transfection, cells were treated with 10 μg/ml of each pathogen product, lipoteichoic acid (LTA) or peptidoglycan (PGN) from Staphylococcus aureus, lipopolysaccharide (LPS) from Escherichia coli 055:B5, mannan from Candida albicans 20A, synthetic soluble bacterial lipoprotein (SBLP) or left untreated (Control). 24 hr post-transfection, κB-dependent transcription was determined by luciferase activity relative and values normalized to β-galactosidase in triplicate cultures. […] Twenty-four hr post-transfection, κB-dependent transcription was determined as described above. […]
A general note: Reporter assays use an easily measured gene product as a stand-in for the process of interest.

Another assay concerns the target T2, TLR2 (Homo sapiens, UniProt O60603).
T2 construct: expressed in transfected cells
The assay can be described thus: NF-κB reporter assay in HEK293 cells stably transfected with TLR2. The note with it: MDP 100 ng/ml, sBLP 1000 ng/ml. It is filed as cell-based. The method, then: Molecules with two copies (2mer) or four copies (4mer) of GlcNAc-MurNAc with attached L-Ala-D-isoGln and their counterparts lacking dipeptide (2mer-aa, 4mer-aa) were synthesized as described (Inamura et al., Tetrahedron Lett. 42:7613 [2001]). Eight hours post-transfection, the indicated amount of each compound was added to the cells and the ability of each compound to activate NF-κB was determined as above. The ability of MDP (100 ng/ml) and sBLP (1000 ng/ml) to activate NF-κB was determined by transfection of 0.3 ng pcDNA3-Nod2 (Nod2) or control plasmid (−) into HEK293 cells or in HEK293 cells stably transfected with TLR2 (TLR2) or with control plasmid (−) and reporter pBxIV-luc and pEF-BOS-β-gal plasmids. Values represent the mean of normalized data ±S.D. of triplicate cultures.

Assay [2] relates to NF-κB. The assay can be described thus: NF-κB binding activity by EMSA in nuclear extracts of PBMNC. It is filed as cell-based, human. The note with it: PBMNC nuclear extracts, EMSA. On the procedure:
FIGS. 20C and D show PBMNC analyzed for expression of IL-1β (C) and A1 (D) transcripts by quantitative RT-PCR.
Genotyping was performed using a ddNTP primer extension system. Nuclear extracts from LPS-stimulated cells were pre-incubated with antibody specific for p50 subunit of NF-κB to monitor the size of the NF-κB-DNA complex. cDNA was amplified with specific primers for human IL-1β, glyceraldehyde-3-phosphate-dehydrogenase (GAPDH) as described (5) and A1 (5′-[…]-3′ (SEQ ID NO: 53) and 5′-[…]-3′ (SEQ ID NO:54)). The levels of IL-1β and A1 transcripts normalized to that of GAPDH were expressed relative to those in untreated cells that were considered as baseline. Specificity of the desired PCR products was determined by melting curve analysis. Histograms represent the mean ±S.D. of triplicate analyses.
The NOD2 variants associated with Crohn's disease, R702W, G908R and L1007fsinsC, occur on the same haplotype background, which includes the common P268S polymorphism (Hugot et al., Nature 411:599 [2001]; Ogura et al., Nature 411:603 [2001]). To compare the ability of normal and mutant NOD2 proteins to induce NF-κB activity in response to MDP, the NOD2 proteins were expressed in cells and evaluated in a functional assay. […] The role of NOD2 in the recognition of MDP by primary cells from normal and Crohn's disease patients was next determined. A panel of healthy and Crohn's disease individuals were genotyped for the disease-associated NOD2 alleles and two individuals (one without clinical evidence of disease and one individual with Crohn's disease) who were homozygous for the loss-of-function L1007fsinsC mutation were identified (FIG. 20A). The identification of apparently healthy individuals homozygous for L1007fsinsC is expected in that the penetrance of the L1007fsinsC mutation is not complete (Hugot et al., supra; Ogura et al., supra; Hampe et al., Lancet 357:1925 [2001]; Ahmad et al., Gastroenterology 122:854 [2002]). Peripheral blood mononuclear cells (PBMNC) that are known to express NOD2 were isolated, incubated with MDP or LPS and NF-κB activation was assessed in nuclear extracts by an electrophoretic mobility shift assay (EMSA).
Background: In EMSA bound probe runs differently from free probe, usually more slowly.

In assay [3] the test system is NF-κB. The experiment in a line: NF-κB reporter assay in parental Rat1 fibroblasts. It is filed as cell-based, rat. On the procedure:
Induction of NF-κB activation was determined in triplicate cultures of HEK293T cells transfected with 30 ng of Nod2 plasmid (open bars) or stimulated with 10 ng/ml of TNFα for 4 h (closed bars) and 70 ng of I-κBα S32A/S36A, IKKα K44A, IKKβ K44A, RICK (406-540) or RIP (558-671) expression plasmid in the presence of pBVIx-Luc and pEF-BOS-β-gal. Results are presented as a percent of values obtained with Nod2 and control plasmid. In the experiment shown, Nod2 and TNFα induced 58±8-fold and 14±1-fold activation of NF-κB, respectively. Values represent mean ±SD of triplicate cultures. […] Induction of NF-κB activation was determined from triplicate cultures of I×10^5 HEK293T cells co-transfected with the indicated plasmids and pBVIx-Luc in the presence of control plasmid pEF-BOS-β-gal. Values represent mean ±SD of triplicate cultures.
NF-κB activation assays. NF-κB activation assays were performed as described (Inohara et al., [1999] supra, Inohara et al., [2000], supra). […] 24 hr post-transfection, cell extracts were prepared and its relative luciferase activity was measured as described (Inohara et al., [1999] supra, Inohara et al., [2000], supra). […]

T2 sequence (O60603 21-784, species assumed): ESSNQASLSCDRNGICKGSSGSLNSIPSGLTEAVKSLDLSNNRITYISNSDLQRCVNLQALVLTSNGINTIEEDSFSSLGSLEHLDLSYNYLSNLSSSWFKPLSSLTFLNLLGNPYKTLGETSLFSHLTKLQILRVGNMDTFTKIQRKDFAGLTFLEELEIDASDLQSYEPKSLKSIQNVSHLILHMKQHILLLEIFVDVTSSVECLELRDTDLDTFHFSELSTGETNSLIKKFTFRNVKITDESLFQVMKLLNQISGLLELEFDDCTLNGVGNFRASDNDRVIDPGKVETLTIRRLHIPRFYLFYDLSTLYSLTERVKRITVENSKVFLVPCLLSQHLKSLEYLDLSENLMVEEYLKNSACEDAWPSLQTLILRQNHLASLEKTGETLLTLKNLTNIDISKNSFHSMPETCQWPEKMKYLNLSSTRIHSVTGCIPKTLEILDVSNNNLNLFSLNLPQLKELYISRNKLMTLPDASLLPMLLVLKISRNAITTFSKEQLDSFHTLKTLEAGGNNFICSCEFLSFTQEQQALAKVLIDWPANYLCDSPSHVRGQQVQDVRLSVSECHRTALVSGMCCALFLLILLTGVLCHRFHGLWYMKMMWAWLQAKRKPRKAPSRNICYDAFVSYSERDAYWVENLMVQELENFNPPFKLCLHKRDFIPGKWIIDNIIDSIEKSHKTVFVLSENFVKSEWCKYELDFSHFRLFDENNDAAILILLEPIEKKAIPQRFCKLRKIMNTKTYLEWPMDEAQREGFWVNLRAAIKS

Regarding `CCC(C)(C)C(=O)C(=O)N1CCCC[C@H]1C(=O)O[C@H](CCc1ccc(OC)c(OC)c1)c1cccc(OCC(=O)NCCNC(=O)COc2cccc([C@@H](CCc3ccc(OC)c(OC)c3)OC(=O)[C@@H]3CCCCN3C(=O)C(=O)C(C)(C)CC)c2)c1` [AP1510], the “NF-κB activation by Nod2-Fpk3 upon ligand” value in the assay on Nod2-Fpk3 (500 nM AP1510, suboptimal amounts (1 ng) of plasmid) was “induced NF-KB activation in a ligand-dependent manner”. For the same molecule, the “NF-κB activation by Nod2-Fpk3 construct lacking the LRRs” value with Nod2-Fpk3 (500 nM AP1510 or untreated) was “induced NF-κB activation in the absence and presence of AP1510”.

Regarding `CC(=O)NC1C(O)OC(CO)C(O)C1OC(C)C(=O)NC(C)C(=O)NC(CCC(=O)O)C(N)=O` [MurNAc-L-Ala-L-isoGln], the “ability to stimulate NOD2 (stereoselectivity)” value at Nod2 was “eliminated the ability of MDP to stimulate NOD2”.

With PaM3CysSerLyS4 [SBLP], in the assay with NF-κB [1] (HEK293T cells transfected with control plasmid, 10 μg/ml of each pathogen product), the “induction of NF-κB reporter gene activity” value was “No significant induction of reporter gene activity”. Moreover, the “TLR2-mediated cellular response (NF-κB)” value at TLR2 is reported as “mediated a cellular response”.

Turning to `Cc1ccc(S(=O)(=O)/C=C/C#N)cc1` [Bay11-7082], the “inhibition of the DNA binding complex induced by MDP” value with NF-κB [2] is on record as “inhibited”.

As for TNFα, in the assay on NF-κB [1] (HEK293T cells stimulated with 10 ng/ml of TNFα for 4 h), the “activation of NF-κB” value worked out at 14±1 fold. Further, the “NF-κB activity in parental Rat1 cells” value with NF-κB [3] is listed as “induced NF-κB activity”.
